Test results from patent publication US9249145B2, “Heterocyclic derivatives of pyrazol-4-yl-pyrrolo[2,3-d]pyrimidines as janus kinase inhibitors” (Incyte Holdings Corporation, priority 2009, dated 2016).
Structures can show the parent of a compound that is named as a salt. Where two headings read alike, the source gives them in different places.

What was measured:
Jak2 (a.a. 828-1132) = target: T1, Jak2 (a.a. 828-1132) (Homo sapiens, UniProt O60674); assay: In vitro JAK kinase assay (HTRF, phosphorylation of biotinylated peptide), JAK2; type: biochemical
T1 construct: Jak2 (a.a. 828-1132); His tag (N); made in house; host or cells: insect cells (baculovirus)
Method in brief: (§1)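 IC50 from HTRF detection (Eu-Py20 antibody, SA-APC, 40 min) after EDTA quench. Reactions ran 1 h at room temperature with 500 nM biotinylated peptide in Tris pH 7.8 buffer with NaCl, DTT, BSA; ATP 90 μM for JAK1, 30 μM for JAK2 (Km), or 1 mM. Enzymes: His-tagged catalytic domains from insect cells.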

[1] = target: T2, human JAK1 (a.a. 837-1142) (Homo sapiens, UniProt P23458); assay: In vitro JAK kinase assay (HTRF, phosphorylation of biotinylated peptide), JAK1; type: biochemical
T2 construct: The catalytic domains of human JAK1 (a.a. 837-1142); His tag (N); made in house; host or cells: insect cells (baculovirus)
Method in brief: as §1

[2] = 1 mM ATP, Examples 92-162, read-out: JAK2 IC50 (nM) @ 1 mM ATP
[3] = 1 mM ATP, Examples 92-162, read-out: JAK1 IC50 (nM) @ 1 mM ATP
[4] = 1 mM ATP, Examples 12-91, read-out: JAK2 IC50 (nM) @ 1 mM ATP
[5] = 1 mM ATP, Examples 12-91, read-out: JAK1 IC50 (nM) @ 1 mM ATP

T1 sequence (O60674 828-1132): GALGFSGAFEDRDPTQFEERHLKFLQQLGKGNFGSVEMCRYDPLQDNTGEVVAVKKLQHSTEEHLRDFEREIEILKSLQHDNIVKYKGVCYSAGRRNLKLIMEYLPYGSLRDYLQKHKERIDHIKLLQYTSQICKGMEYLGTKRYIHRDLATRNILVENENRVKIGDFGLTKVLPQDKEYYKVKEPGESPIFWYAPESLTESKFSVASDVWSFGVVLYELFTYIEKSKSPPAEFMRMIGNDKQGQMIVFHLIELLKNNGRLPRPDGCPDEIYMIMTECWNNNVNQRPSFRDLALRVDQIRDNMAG
T2 sequence (P23458 849-1154): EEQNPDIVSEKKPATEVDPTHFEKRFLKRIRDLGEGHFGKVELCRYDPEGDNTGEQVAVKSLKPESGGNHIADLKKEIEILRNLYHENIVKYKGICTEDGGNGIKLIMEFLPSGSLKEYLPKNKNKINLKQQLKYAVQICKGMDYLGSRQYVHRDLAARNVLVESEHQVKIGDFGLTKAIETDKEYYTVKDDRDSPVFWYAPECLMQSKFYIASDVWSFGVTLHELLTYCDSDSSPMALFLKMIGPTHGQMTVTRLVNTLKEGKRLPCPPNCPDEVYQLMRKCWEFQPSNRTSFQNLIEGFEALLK

Structure (SMILES) | IC50 (Jak2 (a.a. 828-1132); [2]) | IC50 [1, 3] | IC50 (Jak2 (a.a. 828-1132); [4]) | IC50 [1, 5] | also measured
CC(CN1CCN(S(=O)(=O)c2cccc(F)c2)CC1)n1cc(-c2ncnc3[nH]ccc23)cn1 (stereo not drawn) [Example 96, 4-[1-(2-{4-[(3-fluorophenyl)sulfonyl]piperazin-1-yl}-1-methylethyl)-1H-pyrazol-4-yl]-7H-pyrrolo[2,3-d]pyrimidine bis(trifluoroacetate)] | > 100 nM | 20 to 50 nM | – | – | –
N#CCC(CN1CCCN(S(=O)(=O)c2ccccc2C#N)CC1)n1cc(-c2ncnc3[nH]ccc23)cn1 (stereo not drawn) [Example 102, 2-[(4-{3-cyano-2-[4-(7H-pyrrolo[2,3-d]pyrimidin-4-yl)-1H-pyrazol-1-yl]propyl}-1,4-diazepan-1-yl)sulfonyl]benzonitrile] | 50 to 100 nM | 20 to 50 nM | – | – | –
N#CCC(CN1CCN(C(=O)c2ncc(C#N)cc2F)CC1)n1cc(-c2ncnc3[nH]ccc23)cn1 (stereo not drawn) [Example 17, 6-[(4-{3-cyano-2-[4-(7H-pyrrolo[2,3-d]pyrimidin-4-yl)-1H-pyrazol-1-yl]propyl}piperazin-1-yl)carbonyl]-5-fluoronicotinonitrile] | – | – | > 100 nM | 10 to 50 nM | –
N#CCC(CN1CCN(C(=O)Nc2ccccc2OC(F)(F)F)CC1)n1cc(-c2ncnc3[nH]ccc23)cn1 (stereo not drawn) [Example 75] | – | – | 50 to 100 nM | 10 to 50 nM | –
N#CCC(CN1CCN(C(=O)c2ccc(C#N)cc2)CC1)n1ccc(-c2ncnc3[nH]ccc23)c1 (stereo not drawn) [Example 88, 4-(4-(2-(3-(7H-pyrrolo[2,3-d]pyrimidin-4-yl)-1H-pyrrol-1-yl)-3-cyanopropyl)piperazine-1-carbonyl)benzonitrile] | – | – | > 100 nM | 10 to 50 nM | –
N#CCC(CN1CCN(C(=O)c2ncc(C#N)cc2F)CC1)n1ccc(-c2ncnc3[nH]ccc23)c1 (stereo not drawn) [Example 87, 6-(4-(2-(3-(7H-pyrrolo[2,3-d]pyrimidin-4-yl)-1H-pyrrol-1-yl)-3-cyanopropyl)piperazine-1-carbonyl)-5-fluoronicotinonitrile] | – | – | > 100 nM | 10 to 50 nM | –
N#CCC(CN1CCN(C(=O)c2ncc(F)cc2F)CC1)n1cc(-c2ncnc3[nH]ccc23)cn1 (stereo not drawn) [Example 40, 3-(4-(7H-pyrrolo[2,3-d]pyrimidin-4-yl)-1H-pyrazol-1-yl)-4-(4-(3,5-difluoropicolinoyl)piperazin-1-yl)butanenitrile] | – | – | 10 to 50 nM | < 10 nM | –
CCC(CN1CCN(C(=O)c2ccc(F)cc2)CC1)n1cc(-c2ncnc3[nH]ccc23)cn1 (stereo not drawn) [Example 116, (4-(2-(4-(7H-pyrrolo[2,3-d]pyrimidin-4-yl)-1H-pyrazol-1-yl)butyl)piperazin-1-yl)(4-fluorophenyl)methanone] | > 100 nM | 20 to 50 nM | – | – | –
N#CCC(CN1CCN(C(=O)c2cccc(F)c2F)CC1)n1cc(-c2ncnc3[nH]ccc23)cn1 (stereo not drawn) [Example 33, 3-(4-(7H-pyrrolo[2,3-d]pyrimidin-4-yl)-1H-pyrazol-1-yl)-4-(4-(2,3-difluorobenzoyl)piperazin-1-yl)butanenitrile] | – | – | < 10 nM | < 10 nM | –
N#CCC(CN1CCCN(C(=O)c2ccc(F)cc2F)CC1)n1cc(-c2ncnc3[nH]ccc23)cn1 (stereo not drawn) [Example 99, 4-[4-(2,4-difluorobenzoyl)-1,4-diazepan-1-yl]-3-[4-(7H-pyrrolo[2,3-d]pyrimidin-4-yl)-1H-pyrazol-1-yl]butanenitrile] | 50 to 100 nM | 20 to 50 nM | – | – | –
N#CCC(CN1CCN(C(=O)c2ccc(C(F)(F)F)cc2F)CC1)n1ccc(-c2ncnc3[nH]ccc23)c1 (stereo not drawn) [Example 78, 3-(3-(7H-pyrrolo[2,3-d]pyrimidin-4-yl)-1H-pyrrol-1-yl)-4-(4-(2-fluoro-4-(trifluoromethyl)benzoyl)piperazin-1-yl)butanenitrile] | – | – | 10 to 50 nM | < 10 nM | –
COc1ccc(C(=O)N2CCN(CC(CC#N)n3cc(-c4ncnc5[nH]ccc45)cn3)CC2)cc1F (stereo not drawn) [Example 18, 4-[4-(3-fluoro-4-methoxybenzoyl)piperazin-1-yl]-3-[4-(7H-pyrrolo[2,3-d]pyrimidin-4-yl)-1H-pyrazol-1-yl]butanenitrile phosphate Salt] | – | – | 50 to 100 nM | 10 to 50 nM | –
N#CCC(CN1CCN(C(=O)c2ccc(C(F)(F)F)c(F)c2)CC1)n1cc(-c2ncnc3[nH]ccc23)cn1 (stereo not drawn) [Example 56, 3-(4-(7H-pyrrolo[2,3-d]pyrimidin-4-yl)-1H-pyrazol-1-yl)-4-(4-(3-fluoro-4-(trifluoromethyl)benzoyl)piperazin-1-yl)butanenitrile] | – | – | > 100 nM | 10 to 50 nM | –
N#CCC(CN1CCN(C(=O)c2ccc(C(F)F)cc2F)CC1)n1cc(-c2ncnc3[nH]ccc23)cn1 (stereo not drawn) [Example 14, 4-{4-[4-(difluoromethyl)-2-fluorobenzoyl]piperazin-1-yl}-3-[4-(7H-pyrrolo[2,3-d]pyrimidin-4-yl)-1H-pyrazol-1-yl]butanenitrile] | – | – | 10 to 50 nM | < 10 nM | –
N#CCC(CN1CCN(C(=O)c2ccc(F)cc2F)CC1)n1cc(-c2ncnc3[nH]ccc23)cn1 (stereo not drawn) [Example 30, 3-(4-(7H-pyrrolo[2,3-d]pyrimidin-4-yl)-1H-pyrazol-1-yl)-4-(4-(2,4-difluorobenzoyl)piperazin-1-yl)butanenitrile] | – | – | < 10 nM | < 10 nM | –
N#CCC(CN1CCN(C(=O)c2ccc(O)cc2F)CC1)n1cc(-c2ncnc3[nH]ccc23)cn1 (stereo not drawn) [Example 31, 3-(4-(7H-pyrrolo[2,3-d]pyrimidin-4-yl)-1H-pyrazol-1-yl)-4-(4-(2-fluoro-4-hydroxybenzoyl)piperazin-1-yl)butanenitrile trifluoroacetate salt] | – | – | 10 to 50 nM | < 10 nM | –
N#CCC(CN1CCCN(S(=O)(=O)c2ccccc2OC(F)(F)F)CC1)n1cc(-c2ncnc3[nH]ccc23)cn1 (stereo not drawn) [Example 110, 3-[4-(7H-pyrrolo[2,3-d]pyrimidin-4-yl)-1H-pyrazol-1-yl]-4-(4-{[2-(trifluoromethoxy)phenyl]sulfonyl}-1,4-diazepan-1-yl)butanenitrile] | > 100 nM | 20 to 50 nM | – | – | –
N#CCC(CN1CCN(C(=O)c2c(F)cc(Cl)cc2F)CC1)n1cc(-c2ncnc3[nH]ccc23)cn1 (stereo not drawn) [Example 27, 3-(4-(7H-pyrrolo[2,3-d]pyrimidin-4-yl)-1H-pyrazol-1-yl)-4-(4-(4-chloro-2,6-difluorobenzoyl)piperazin-1-yl)butanenitrile] | – | – | < 10 nM | < 10 nM | –
N#CCC(CN1CCN(C(=O)c2cc(F)cc(F)c2)CC1)n1cc(-c2ncnc3[nH]ccc23)cn1 (stereo not drawn) [Example 3, 4-[4-(3,5-difluorobenzoyl)piperazin-1-yl]-3-[4-(7H-pyrrolo[2,3-d]pyrimidin-4-yl)-1H-pyrazol-1-yl]butanenitrile] | – | – | – | – | IC50 (Jak2 (a.a. 828-1132); 1 mM ATP, Examples 1-11, read-out: IC50 (nM) @ 1 mM ATP JAK2): < 10 nM; IC50 (Jak2 (a.a. 828-1132); Km ATP (30 μM for Jak2), Examples 1-11, read-out: IC50 (nM) @ Km ATP JAK2): < 10 nM; IC50 ([1]; 1 mM ATP, Examples 1-11, read-out: IC50 (nM) @ 1 mM ATP JAK1): 10 to 20 nM; IC50 ([1]; Km ATP (90 μM for Jak1), Examples 1-11, read-out: IC50 (nM) @ Km ATP JAK1): < 10 nM
N#CCC(CN1CCN(S(=O)(=O)c2ccc(Cl)s2)CC1)n1cc(-c2ncnc3[nH]ccc23)cn1 (stereo not drawn) [Example 68, 3-(4-(7H-pyrrolo[2,3-d]pyrimidin-4-yl)-1H-pyrazol-1-yl)-4-(4-(5-chlorothiophen-2-ylsulfonyl)piperazin-1-yl)butanenitrile] | – | – | < 10 nM | < 10 nM | –
CCC(CN1CCN(S(=O)(=O)c2cccc(C#N)c2)CC1)n1cc(-c2ncnc3[nH]ccc23)cn1 (stereo not drawn) [Example 139, 3-(4-(2-(4-(7H-pyrrolo[2,3-d]pyrimidin-4-yl)-1H-pyrazol-1-yl)butyl)piperazin-1-ylsulfonyl)benzonitrile] | > 100 nM | 20 to 50 nM | – | – | –
CCC(CN1CCN(C(=O)c2ccc(O)cc2Cl)CC1)n1cc(-c2ncnc3[nH]ccc23)cn1 (stereo not drawn) [Example 122, (4-(2-(4-(7H-pyrrolo[2,3-d]pyrimidin-4-yl)-1H-pyrazol-1-yl)butyl)piperazin-1-yl)(2-chloro-4-hydroxyphenyl)methanone] | 50 to 100 nM | < 20 nM | – | – | –
Cc1ccccc1S(=O)(=O)N1CCCN(CC(CC#N)n2cc(-c3ncnc4[nH]ccc34)cn2)CC1 (stereo not drawn) [Example 108, 4-{4-[(2-methylphenyl)sulfonyl]-1,4-diazepan-1-yl}-3-[4-(7H-pyrrolo[2,3-d]pyrimidin-4-yl)-1H-pyrazol-1-yl]butanenitrile] | 50 to 100 nM | < 20 nM | – | – | –
N#CCC(CN1CCN(C(=O)Nc2ccc(F)cc2F)CC1)n1cc(-c2ncnc3[nH]ccc23)cn1 (stereo not drawn) [Example 72, 4-(2-(4-(7H-pyrrolo[2,3-d]pyrimidin-4-yl)-1H-pyrazol-1-yl)-3-cyanopropyl)-N-(2,4-difluorophenyl)piperazine-1-carboxamide] | – | – | 50 to 100 nM | 10 to 50 nM | –
CCC(CN1CCN(S(=O)(=O)c2ccn(C)n2)CC1)n1cc(-c2ncnc3[nH]ccc23)cn1 (stereo not drawn) [Example 115, 4-{1-[1-({4-[(1-methyl-1H-pyrazol-3-yl)sulfonyl]piperazin-1-yl}methyl)propyl]-1H-pyrazol-4-yl}-7H-pyrrolo[2,3-d]pyrimidine] | 20 to 50 nM | < 20 nM | – | – | –
CCC(CN1CCN(C(=O)c2cc(F)cc(F)c2)CC1)n1cc(-c2ncnc3[nH]ccc23)cn1 (stereo not drawn) [Example 121, (4-(2-(4-(7H-pyrrolo[2,3-d]pyrimidin-4-yl)-1H-pyrazol-1-yl)butyl)piperazin-1-yl)(3,5-difluorophenyl)methanone] | > 100 nM | 20 to 50 nM | – | – | –
